From PMC8790063, “Discovery of Benzopyrrolizidines as Promising Antigiardiasic Agents” (Frontiers in Cellular and Infection Microbiology, 2022)
pIC50: −log10 of the molar value. Values joined by “and” are separate entries in the source; they are usually repeats but may differ in a detail not shown here. Identical values can stand only once.

Assays:
Assay type in all cases: cell-based
[1] = tested on: Giardia lamblia trophozoites; assay: In vitro cytotoxicity microassay with XTT viability readout on trophozoites; conditions: for % cell death at 12.5 µM (Hits confirmation) / % cell death at 25 µM (Hits confirmation) / % cell death at 50 µM (Hits confirmation) / % cell death at 100 µM (First screening): Table S9; for % cell death at 100 µM (First screening) / % cell death / % cell death 100 µM: 100 µM; for % cell death: first set of 54 compounds (Table S8); for pIC50: G. lamblia trophozoites, standard deviation in parenthesis; for % cell death 100 µM: second set of 20 compounds (Table S10)
Description: The cytotoxicity test was performed using sterile 96 well clear flat bottom polystyrene TC-treated microplates (Corning Costar #3596). Every well contained in a triplicate 287.5 µL medium supplemented with a first set of 54 compounds of the collection, control drugs (metronidazole and tinidazole), and negative controls (0.05% DMSO). Afterwards, 12.5 µL of a cell suspension containing 1.6 x 10^7 trophozoites/mL was added to every well to obtain a final number of 2x10^5 cells/well and incubated at 37°C for 24 hours. […] A triplicate of blank was done by filling three wells with only 300 µL culture medium (no cells but DMSO). After that, the plates were chilled for 30 minutes to separate the adhered trophozoites in wells. Later, we transferred 50 µL of this suspension to a second plate containing 250 µL of TYI-S-33 media free of compounds, DMSO or antibiotic per well, and re-cultivated at 37°C for 24 hours. The test was performed by two independent experiments for all compounds.
>The trophozoites viability was evaluated using the 2,3-Bis(2-methoxy-4-nitro-5-sulfophenyl)-sH-tetrazolium-5-carboxianilide inner salt (XTT) assay. Antigiardiasic activity of each compound was expressed as the death percentage, calculated by using the next equation ([Inc, 2020]):
% death=[(Abs. of well with 100% viability−Abs. of well with compound)/(Abs. of well with 100% viability−Abs. of blank well)]X 100
The assay was performed by two independent experiments, where each compound was tested by triplicate.

HaCaT cells = assay: Cytotoxicity assay in human keratinocytes (crystal violet); conditions: for pIC50: HaCaT human keratinocytes, standard deviation in parenthesis; for Selectivity Index: IC50 HaCaT/IC50 Trophozoites
Description: The in vitro cytotoxicity evaluation of compounds was assayed in immortalized human keratinocytes cell line (HaCat). Briefly, cell cultures were grown in DMEM-F12 media supplemented with 10% decomplemented fetal bovine serum, at 37°C and 5% CO2. Before to test, cells were harvested by centrifugation at 25°C and resuspended in fresh media at 5x10^4 cells/mL. Then, the cells were placed in sterile 24 well clear flat bottom polystyrene TC-treated plates (Corning Costar, #353047) at 3x10^4 cells/well in a volume of 600 µL during 24 hours/37°C at 5% CO2, […] of media was replaced by the same amount of fresh media containing the compounds at concentrations of 100, 90, 80, 70, 60, and 50 µM; DMSO was used as a negative control. The cells were incubated for 48 hours/37°C and 5% CO2. In the end, the cells were washed two times with PBS, fixed and stained by incubating 15 minutes in a solution containing 50% EtOH, 1.75% formaldehyde, 0.75% crystal violet, and 0.25% NaCl. Then, the plates were washed several times with water until removing the colorant excess. After that, the plates were dried for one day at 25°C. Finally, 600 µL of PBS supplemented with 1% SDS was added to wells. The crystal violet incorporated to cells was spectrophotometrically quantified at 570 nm; the IC50 values were calculated from the percentage of death obtained from the different concentrations of assayed compounds. The assay was performed by two independent experiments, each compound was tested by triplicate.

[2] = tested on: Giardia lamblia trophozoites; assay: Morphological studies of trophozoites (bright-field microscopy, transmission electron microscopy); conditions: at the IC50 concentration, 24 hours; for Morphological effects on trophozoites (bright-field microscopy): Giemsa stain
Description: For bright-field microscopy (BFM), 2x10^6 trophozoites were placed in 1.5 mL vials containing antibiotic-free TYI-S-33 culture medium, with or without metronidazole, tinidazole, albendazole, or the library compounds, at the IC50 concentration values. The trophozoites were incubated for 24 hours/37°C and harvested by chilling in ice bath for 15 minutes and centrifuged at 2,000 x g/5 minutes. The bottom cell was washed three times with PBS, and then, placed in glass slides, fixed with MeOH and stained with Giemsa. Finally, the samples were analyzed by BFM. To identify ultrastructural damage, 1x10^6 trophozoites treated as described before were fixed with 2.5% glutaraldehyde and post-fixed with 1% osmium tetroxide in 0.1 M cacodylate buffer, pH 7.2. Afterward, the samples were dehydrated with sequential increasing of ethanol concentrations and then, embedded in epoxy resin. Ultrathin sections of samples were analyzed in a JEOL-JEM-1200 transmission electron microscope coupled to a CCD GATAN camera in the Unidad de Imagenología del Instituto de Fisiología Celular, UNAM.

Row | SMILES | % cell death at 12.5 µM (Hits confirmation) [1] | % cell death at 25 µM (Hits confirmation) ([1]; 25 µM) | % cell death at 50 µM (Hits confirmation) ([1]; 50 µM) | % cell death at 100 µM (First screening) [1] | % cell death [1] | pIC50 ([1]; Giardia duodenalis) | pIC50 (HaCaT cells; 48 hours) | pIC50 (HaCaT cells; Homo sapiens, HaCaT, 48 h) | Selectivity Index (HaCaT cells) | Morphological effects on trophozoites (bright-field microscopy) [2] | % cell death 100 µM [1] | Ultrastructural effects on trophozoites (transmission electron microscopy) [2] | pIC50 [1] | % cell death 25 µM ([1]; 25 µM, second set (Table S10)) | % cell death 50 µM ([1]; 50 µM, second set (Table S10))
1 | COc1ccc(/C=C2/CC3(C(=O)NC4CCCCC4)c4ccccc4CN3C2=O)cc1OC (stereo not drawn) [EHV-110-154] | 4.160% | 10.752% | 94.654% | 100.0% | 100.0% | 4.52 | 4.30 | 4.30 | 1.68 | affected the nuclear structure and promoted the loss of one nucleus |  |  |  |  | 
2 | Cc1ncc([N+](=O)[O-])n1CCO [Metronidazole, reference compound] | 86.562% |  |  | 100.0% | 100.0% | 5.59 |  | 4.14 | 27.6 | provoked cell swelling and the voiding of cytoplasmic contents making the cells translucent | 100.1% | without apparent morphologic changes |  |  | 
3 | COc1ccc(/C=C2/CC3(C(=O)N[C@@H](C)c4ccccc4)c4ccccc4CN3C2=O)cc1OC (stereo partly drawn) [EHV-110-174, 2-((Z)-3,4-dimethoxybenzylidene)-3-oxo-N-((S)-1-phenylethyl)-2,3-dihydro-1H-pyrrolo[2,1-a]isoindole-9b(5H)-carboxamide] |  | 98.298% | 98.312% | 100.0% | 100.0% | 4.96 |  | 3.89 | 12 | the cells are translucent and swelling, with shortening of flagella but without general morphological deformation |  | damaged the cellular nuclei inducing chromatin condensation and conferring to it a speckled pattern | 4.96 |  | 
4 | COc1ccc(/C=C2/CC3(C(=O)NC(C)(C)C)c4cc(F)ccc4CN3C2=O)cc1OC (stereo not drawn) [EHV-110-160] | 2.874% | 67% and 66.901% | 98.178% | 100.0% | 100.0% | 4.70 |  | 3.85 | 7 | affected the nuclear structure and promoted the loss of one nucleus |  |  |  |  | 
5 | CCCSc1ccc2nc(NC(=O)OC)[nH]c2c1 [Albendazole] |  |  |  |  |  |  |  |  |  | an intense deformation of its general structure was observed |  | loss of adhesive disc |  |  | 
6 | CCS(=O)(=O)CCn1c([N+](=O)[O-])cnc1C [Tinidazole, reference compound] | 98.499% |  |  | 100.0% | 100.0% | 5.89 |  | 4.22 | 46 | provoked cell swelling and the voiding of cytoplasmic contents making the cells translucent | 100.7% |  |  |  | 
7 | COc1ccc(/C=C2/CC3(C(=O)NC(C)(C)C)c4ccccc4CN3C2=O)cc1OC (stereo not drawn) [EHV-110-106] |  |  |  |  |  |  |  |  |  |  | 89.2% |  |  | 8.2% | 13.4%
